# Where two headings read alike, the source gives them in different places.
# Target: human IDO (Homo sapiens, UniProt P14902)
# Assay: IDO inhibition enzyme assay (N-formylkynurenine/kynurenine formation read at 490 nm)
# Assay type: biochemical
# Experimental: Compounds of the instant invention were analyzed for inhibition of human IDO. The assay was conducted according to a literature protocol, with ascorbic acid and methylene blue serving the role of reductant (Littlejohn et al. (2000) Protein Expression and Purification, 19:22-29; Sono et al. (1989) J. Biol. Chem., 264:1616-1622). […] The enzyme assay monitored for formation of N-formylkynurenine by hydrolyzing the formyl group and spectrophotometrically analyzing for the conjugated imine generated from kynurenine and 4-(dimethylamino) benzaldehyde.
# Specifically, the inhibition assays were performed in a 96-well microtiter plate as previously described with a small modification (Littlejohn et al. (2000) Prot. Expr. Purif., 19:22-29). Briefly, the reaction mixture contained 50 mM potassium phosphate buffer (pH 6.5), 40 mM ascorbic acid, 400 μg/ml catalase, 20 μM methylene blue and purified recombinant IDO(1) optimized based on its activity. The reaction mixture was added to the substrate, L-tryptophan (L-Trp), and the inhibitor. The L-Trp was serially diluted from 200 to 25 μM and the inhibitors were tested at two concentrations, 200 and 400 μM. The reaction was carried out at 37° C. for 60 minutes and stopped by adding 30% (w/v) trichloroacetic acid. The plate was heated at 65° C. for 15 minutes to convert formylkynurenine to kynurenine and then was spun at 6000 g for 5 minutes. Finally 100 μl supernatant from each well was transferred to a new 96 well plate and mixed with 2% (w/v) p-dimethylamino-benzaldehyde in acetic acid. The yellow color generated from the reaction with kynurenine was measured at 490 nm using a Synergy HT microtiter plate reader (Bio-Tek, Winooski, Vt.). The data was analyzed using Graph Pad Prism 4 software (Graph Pad Software Inc., San Diego, Calif.).
# [1] = purified recombinant IDO(1), L-Trp substrate, ascorbic acid/methylene blue reductant, catalase, pH 6.5, 37° C. for 60 minutes, read-out: IC50
# Chain of human IDO (P14902 whole entry): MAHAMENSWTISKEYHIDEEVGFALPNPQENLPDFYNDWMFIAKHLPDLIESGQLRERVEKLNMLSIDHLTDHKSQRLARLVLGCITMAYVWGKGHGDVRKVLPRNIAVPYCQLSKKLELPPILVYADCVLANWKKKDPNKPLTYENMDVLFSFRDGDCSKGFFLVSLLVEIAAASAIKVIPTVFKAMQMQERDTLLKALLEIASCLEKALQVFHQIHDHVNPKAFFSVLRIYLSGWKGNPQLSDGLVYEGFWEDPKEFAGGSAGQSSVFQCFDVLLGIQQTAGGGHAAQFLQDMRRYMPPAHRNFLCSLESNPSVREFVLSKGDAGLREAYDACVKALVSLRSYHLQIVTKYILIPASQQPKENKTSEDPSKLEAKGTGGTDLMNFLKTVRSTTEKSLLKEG
Structure (SMILES),IC50 [1],IC50
CC1(C)OC2=C(C(=O)c3ccccc3C2=O)[C@@H](O)[C@@H]1Br (relative stereo) [Compound 27],290 nM,
"CO[C@H]1C2=C(OC(C)(C)[C@H]1O)C(=O)c1ccccc1C2=O (stereo in doubt) [Compound 21, 3-hydroxy-4-methoxy-2,2-dimethyl-3,4-dihydro-2H-benzo[g]chromene-5,10-dione]",976 nM,
"CC1(C)C=CC2=C(O1)C(=O)c1cccc(O)c1C2=O [Compound 28, 6-hydroxy-2,2-dimethyl-2H-benzo[g]chromene-5,10-dione]",58 nM,
"CO[C@H]1C2=C(OC(C)(C)[C@@H]1O)C(=O)c1ccccc1C2=O (stereo in doubt) [Compound 22, 3-hydroxy-4-methoxy-2,2-dimethyl-3,4-dihydro-2H-benzo[g]chromene-5,10-dione]",3960 nM,
"CC1(C)C=CC2=C(O1)C(=O)c1ccccc1C2=O [Compound 8, 2,2-dimethyl-2H-benzo[g]chromene-5,10-dione]",,155 nM
"COC(=O)C1(C)C=CC2=C(O1)C(=O)c1ccccc1C2=O (centres unmarked) [Compound 29, methyl 2-methyl-5,10-dioxo-5,10-dihydro-2H-benzo[g]chromene-2-carboxylate]",161 nM,
"C=CCN[C@H]1C2=C(OC(C)(C)[C@H]1O)C(=O)c1ccccc1C2=O (stereo in doubt) [Compound 17, 4-(allylamino)-3-hydroxy-2,2-dimethyl-3,4-dihydro-2H-benzo[g]chromene-5,10-dione]",183 nM,
"CCCCN[C@H]1C2=C(OC(C)(C)[C@H]1O)C(=O)c1ccccc1C2=O (stereo in doubt) [Compound 19, 4-(butylamino)-3-hydroxy-2,2-dimethyl-3,4-dihydro-2H-benzo[g]chromene-5,10-dione]",160 nM,
"CCCCN[C@H]1C2=C(OC(C)(C)[C@@H]1O)C(=O)c1ccccc1C2=O (stereo in doubt) [Compound 20, 4-(butylamino)-3-hydroxy-2,2-dimethyl-3,4-dihydro-2H-benzo[g]chromene-5,10-dione]",70 nM,
"CC1(C)OC2=C(C(=O)c3ccccc3C2=O)C2OC21 (centres unmarked) [Compound 14, 2,2-dimethyl-9a,9b-dihydro-1aH-benzo[g]oxireno[2,3-c]chromene-4,9(2H,3aH)-dione]",3300 nM,
"CC1(C)OC2=C(C(=O)c3ccccc3C2=O)[C@H](O)[C@@H]1O [Compound 12, (3S,4S)-3,4-dihydroxy-2,2-dimethyl-3,4-dihydro-2H benzo[g]chromene-5,10-dione]",1500 nM,

# Reference: patent publication US8389568B2, “IDO inhibitors and methods of use thereof” (Lankenau Institute for Medical Research, priority 2007, dated 2013)
